According to patent US20240197650A1, “Combination of Cinnamaldheyde and Eugenol with Antimycotic Activity” (priority 2021, published 2024):

How the values were obtained:
[1] = system: L. acidophilus strain La-14; experiment: Microdilution vs L. acidophilus; assay type: cell-based, Lactobacillus acidophilus; conditions: for MIC vs L. acidophilus: MRS broth, 37° C. 48 hours, anaerobiosis; for MIC vs L. acidophilus relative to the observed maximum MIC vs Candida spp: maximum MIC in 2 strains out of 18 only
Procedure: The antibacterial activity of […] eugenol vs L. acidophilus was studied by using the disk diffusion method (reading scheme as reported in FIG. 1) and the microdilution method (reading scheme as reported in FIG. 2). A L. acidophilus strain named La-14 (Danisco SpA, Milan, Italy) was tested. The essential oils (80% oil, 20% DMSO) were dissolved in MRS broth up to a concentration of 8% v/v (so obtaining a final concentration of 4% v/v). In a 96-well microtiter plate, 1⁄2 serial dilutions of the oils were carried out (volume: 100 μl. […] Each well was then injected with 100 μl of the cell suspension. The microtiter plates were incubated at 37° C. for 48 hours in anaerobiosis. MIC was determined as the concentration of the oils in the first well which is not cloudy. The experiment was carried out in duplicate.

Candida spp. [2] = experiment: Microdilution method MIC/MFC, 18 Candida spp. strains (distribution); assay type: cell-based; conditions: 18 strains
Procedure: (§1) A total of eighteen strains belonging to Candida spp. (15 C. albicans, 2 C. glabrata and 1 C. lusitaniae) derived from a collection of vaginal strains isolated in CHROMAgar Candida (BD Italia SpA, Milan, Italy) were grown on Potato Dextrose Agar (Oxoid Thermofisher SpA, Milan, Italy) at 35° C. for 24 hours.
The antifungal activity of amphotericin B and of cinnamaldheyde and eugenol were tested with the microdilution method as reported by Bona et al. [Bona et al., Sensitivity of Candida albicans to essential oils: are they an alternative to antifungal agents? J Appl Microbiol. 2016 December, 121(6): 1530-1545] with small changes. All the 18 Candida spp strains were tested. For each isolated, the colonies deriving from cultures (24 hours) in PDA were diluted in saline up to a concentration of 2×10^3 CFU/ml (so obtaining a final concentration of 10 3CGU/ml). Cinnamaldehyde and eugenol were dissolved in DMSO (80% oil, 20% DMSO), then diluted in Sabouraud broth up to a concentration of 8% v/v (so obtaining a final concentration of 4% v/v). Then, in a 96-well microtiter plate ½ serial dilution of amphotericin B (range 32-0.032 μg/ml, for a final range of 16-0.016 μg/ml) and of the essential oils (range 8-0.004% v/v, for a final range of 4-0.002% v/v) were carried out. Each well was then injected with 100 μl of cell suspension. The negative control contained DMSO diluted in Sabouraud broth (at 2% v/v, for a final concentration of 1% v/v). […] Each experiment was carried out in duplicate. The Minimum Inhibitory Concentration (MIC) was determined as the concentration of the oils in the first well which is not cloudy. The Minimum Fungicidal Concentration (MFC) was determined as the lowest concentration of the oils, with the agar culture showing the complete absence of fungal growth. The determination of the amphotericin B MIC was carried out also according to the EUCAST guidelines (cutoff 1 μg/ml) [https://eucast.org/astoffungi/clinicalbreakpointsforantifungals], all the results being consistent.

C. albicans = experiment: Disk diffusion method, C. albicans strains; assay type: cell-based
Procedure: as §1
(§2) Colonies were re-suspended in sterile saline at a density corresponding to #0.5 McFarland (opacity standard). #0.5 McF correspond to 1.4×10^6 colony forming units (CFU)/ml for C. albicans, 4.3×10^6 CFU/ml for C. glabrata and 3×10^6 CFU/ml for C. lusitaniae [Guinea J. et al., Rapid antifungal susceptibility determination for yeast isolates by use of Etest performed directly on blood samples from patients with fungemia, J Clin Microbiol. 2010 June, 48(6): 2205-12]. Then, the sensitivity test vs the two oils has been performed. The disk diffusion method was carried out as follows: for each tested strain, 4 plates of Potato Dextrose Agar (PDA) were seeded in 3 directions to produce a confluent growth, by sterile swab soaked in the cell suspension. Sorbent paper disks (Oxoid Thermofisher SpA, Milan, Italy) 6.0 mm diameter were placed on the agar surface and added with 10 μl of each essential oil. Disks soaked with 10 μg amphotericin B were used as positive control. Also disks of chlortrimazole (from 10 μg to 40 μg) were used, but the inhibition rings could not be clearly read due to the formation of a re-growth ring. Disks soaked with 10 μl pure dimethylsulphoxide (DMSO, Sigma-Aldrich, St. Louis, MO, USA) were used as negative control. The plates were incubated at 35° C. for 24 hours. All the experiments were carried out in duplicate. The inhibiting effect of the oils were considered to be effective when the inhibition ring was equal or greater than that caused by amphotericin B. For amphotericin B, an inhibition zone (IZ)≥15 mm was considered as “sensitivity”, from 10 to 14 mm as “intermediate sensitivity” and <10 mm as “resistance” [Kauser et al., Agreement of Direct Antifungal Susceptibility Testing from Positive Blood Culture Bottles with Conventional Method for Candida Species, J Clin Microbiol. 2016 February, 54(2):343-34].

C. lusitaniae = experiment: Disk diffusion method, C. lusitaniae strain; assay type: cell-based; conditions: C. lusitaniae 1
Procedure: as §1
Colonies were re-suspended in sterile saline at a density corresponding to #0.5 McFarland (opacity standard). #0.5 McF correspond to 1.4×10^6 colony forming units (CFU)/ml for C. albicans, 4.3×10^6 CFU/ml for C. glabrata and 3×10^6 CFU/ml for C. lusitaniae [Guinea J. et al., Rapid antifungal susceptibility determination for yeast isolates by use of Etest performed directly on blood samples from patients with fungemia, J Clin Microbiol. 2010 June, 48(6): 2205-12]. Then, the sensitivity test vs the two oils has been performed. The disk diffusion method was carried out as follows: for each tested strain, 4 plates of Potato Dextrose Agar (PDA) were seeded in 3 directions to produce a confluent growth, by sterile swab soaked in the cell suspension. Sorbent paper disks (Oxoid Thermofisher SpA, Milan, Italy) 6.0 mm diameter were placed on the agar surface and added with 10 μl of each essential oil. Disks soaked with 10 μg amphotericin B were used as positive control. Also disks of chlortrimazole (from 10 μg to 40 μg) were used, but the inhibition rings could not be clearly read due to the formation of a re-growth ring. Disks soaked with 10 μl pure dimethylsulphoxide (DMSO, Sigma-Aldrich, St. Louis, MO, USA) were used as negative control. The plates were incubated at 35° C. for 24 hours. All the experiments were carried out in duplicate. […]

Candida spp. [3] = experiment: Disk diffusion method, 18 Candida spp. strains (distribution); assay type: cell-based; conditions: for inhibition rings diameter, average (including 6.0 mm of the disk) / inhibition rings diameter, range (including 6.0 mm of the disk) / % inhibited strains: 18 strains; for inhibition rings diameter, average (including 6.0 mm of the disk) / inhibition rings diameter, range (including 6.0 mm of the disk): disk 10 μl oil or 10 μg amphotericin B, 35° C. 24 hours; for inhibition of the tested Candida strains (words) / inhibition rings compared with those caused by amphotericin B (10 μg): disks soaked with the oils separately; for % inhibited strains: ring equal or greater than that of amphotericin B
Procedure: as §1, §2

SMILES	MIC vs L. acidophilus relative to the average MIC vs Candida spp [1]	MIC vs L. acidophilus [1] [% v/v]	MIC vs L. acidophilus relative to the observed maximum MIC vs Candida spp [1]	MFC average (Candida spp. [2]) [% v/v]	MIC average (Candida spp. [2]) [% v/v]	Diameters of the inhibition rings (including 6.0 mm of the disk) (C. albicans; C. albicans 1) [mm]	Diameters of the inhibition rings (including 6.0 mm of the disk) (C. albicans; C. albicans 2) [mm]	Diameters of the inhibition rings (including 6.0 mm of the disk) (C. albicans; C. albicans 3) [mm]	Diameters of the inhibition rings (including 6.0 mm of the disk) (C. albicans; C. albicans 4) [mm]	Diameters of the inhibition rings (including 6.0 mm of the disk) (C. albicans; C. albicans 5) [mm]	Diameters of the inhibition rings (including 6.0 mm of the disk) (C. albicans; C. albicans 6) [mm]	Diameters of the inhibition rings (including 6.0 mm of the disk) (C. albicans; C. albicans 7) [mm]	Diameters of the inhibition rings (including 6.0 mm of the disk) (C. albicans; C. albicans 8) [mm]	Diameters of the inhibition rings (including 6.0 mm of the disk) (C. albicans; C. albicans 9) [mm]	Diameters of the inhibition rings (including 6.0 mm of the disk) (C. albicans; C. albicans 10) [mm]	Diameters of the inhibition rings (including 6.0 mm of the disk) (C. albicans; C. albicans 11) [mm]	Diameters of the inhibition rings (including 6.0 mm of the disk) (C. albicans; C. albicans 12) [mm]	Diameters of the inhibition rings (including 6.0 mm of the disk) (C. albicans; C. albicans 13) [mm]	Diameters of the inhibition rings (including 6.0 mm of the disk) (C. albicans; C. albicans 14) [mm]	Diameters of the inhibition rings (including 6.0 mm of the disk) (C. albicans; C. albicans 15) [mm]	other results
C=CCc1ccc(O)c(OC)c1 [Eugenol, eugenol]	about 6 fold	0.25	double	0.067	0.043	35.0	35.0	33.0	35.0	35.0	36.0	44.0	41.0	34.0	34.5	34.0	34.0	35.0	34.0	34.0	Diameters of the inhibition rings (including 6.0 mm of the disk) (C. lusitaniae): 43.0 mm; inhibition rings diameter, average (including 6.0 mm of the disk) (Candida spp. [3]): 35.2 mm; inhibition rings diameter, range (including 6.0 mm of the disk) (Candida spp. [3]): 30.5-41 mm; inhibition of the tested Candida strains (words) (Candida spp. [3]): inhibited the growth of all tested Candida strains; inhibition rings compared with those caused by amphotericin B (10 μg) (Candida spp. [3]): notably greater; % inhibited strains (Candida spp. [3]): 100% (18/18)
O=CC=Cc1ccccc1 [Cinnamaldheyde, cinnamaldehyde]	about 6.7 fold	0.032	double	0.01	0.0048	65.0	70.0	67.0	66.0	71.0	67.0	75.0	67.0	70.5	72.5	75.0	75.0	71.0	75.0	70.0	Diameters of the inhibition rings (including 6.0 mm of the disk) (C. lusitaniae): 75.0 mm; inhibition rings diameter, average (including 6.0 mm of the disk) (Candida spp. [3]): 69 mm; inhibition rings diameter, range (including 6.0 mm of the disk) (Candida spp. [3]): 55-75 mm; inhibition of the tested Candida strains (words) (Candida spp. [3]): inhibited all tested strains; inhibition rings compared with those caused by amphotericin B (10 μg) (Candida spp. [3]): notably greater; inhibition of the tested Candida strains (words) (Candida spp. [3]; listed as cinnamaldheyde): inhibited the growth of all tested Candida strains; % inhibited strains (Candida spp. [3]): 100% (18/18)
